Test results as given in patent US8486986B2, “Microbiocides” (Syngenta Crop Protection LLC, priority 2007, dated 2013).

Q: With `CC(Cc1c(-c2ccc(F)cc2)sc(Cl)c1Cl)NC(=O)c1cn(C)nc1C(F)(F)F` (stereo not shown) [Compound 7.72, 1-methyl-3-trifluoromethyl-1H-pyrazole-4-carboxylic acid {2-[4,5-dichloro-2-(4-fluorophenyl)-thiophen 3-yl]1-methylethyl}amide] as the molecule, how does the melting point read?
A: 126 to 130 °C
